Calls of active or inactive are those of the source. How the calls were made is not given here.
Test system: CCRIS mutagenicity, Ames/micronucleus/aberration tests
Assay: CCRIS mutagenicity studies
[1] = Test System: AMES SALMONELLA TYPHIMURIUM, Strain/Indicator: TA98, Metabolic Activation: NONE, Method: PREINCUBATION
[2] = Test System: AMES SALMONELLA TYPHIMURIUM, Strain/Indicator: TA100, Metabolic Activation: NONE, Method: PREINCUBATION
[3] = Test System: AMES SALMONELLA TYPHIMURIUM, Strain/Indicator: TA1535, Metabolic Activation: NONE, Method: PREINCUBATION
[4] = Test System: AMES SALMONELLA TYPHIMURIUM, Strain/Indicator: TA1537, Metabolic Activation: NONE, Method: PREINCUBATION
[5] = Test System: AMES SALMONELLA TYPHIMURIUM, Strain/Indicator: TA1538, Metabolic Activation: NONE, Method: PREINCUBATION

`O=C(O)C(F)(F)C(F)(Cl)C(F)(F)C(F)(Cl)C(F)(F)C(F)(Cl)C(F)(F)Cl` (stereo not given) was tested, and the mutagenic call [1] was “inactive; negative”, the mutagenic call (Test System: AMES SALMONELLA TYPHIMURIUM, Strain/Indicator: TA98, Metabolic Activation: RAT, LIVER, S-9, Method: PREINCUBATION) was “inactive; negative” and the mutagenic call [2] was “inactive; negative”. The mutagenic call (Test System: AMES SALMONELLA TYPHIMURIUM, Strain/Indicator: TA100, Metabolic Activation: RAT, LIVER, S-9, Method: PREINCUBATION) was “inactive; negative”, the mutagenic call [3] was “inactive; negative” and the mutagenic call (Test System: AMES SALMONELLA TYPHIMURIUM, Strain/Indicator: TA1535, Metabolic Activation: RAT, LIVER, S-9, Method: PREINCUBATION) was “inactive; negative”. The mutagenic call [4] was “inactive; negative”, the mutagenic call (Test System: AMES SALMONELLA TYPHIMURIUM, Strain/Indicator: TA1537, Metabolic Activation: RAT, LIVER, S-9, Method: PREINCUBATION) was “inactive; negative” and the mutagenic call [5] was “inactive; negative”. The mutagenic call (Test System: AMES SALMONELLA TYPHIMURIUM, Strain/Indicator: TA1538, Metabolic Activation: RAT, LIVER, S-9, Method: PREINCUBATION) was “inactive; negative”, the mutagenic call (Test System: CHINESE HAMSTER OVARY, Strain/Indicator: CHO-K1-BH4 (HGPRT), Metabolic Activation: NONE, Method: STANDARD PLATE) was “inactive; negative” and the mutagenic call (Test System: CHINESE HAMSTER OVARY, Strain/Indicator: CHO-K1-BH4 (HGPRT), Metabolic Activation: RAT, LIVER, S-9, Method: STANDARD PLATE) was “inactive; negative”. The mutagenic call (Test System: UDS RODENT HEPATOCYTES, Strain/Indicator: THY INCORP (NON-S-PHASE), Metabolic Activation: NONE, Method: AUTORADIOGRAPHY) was “inactive; negative”.

In the case of `O=S1(=O)CCCC1`, the mutagenic call [1] is reported as “inactive; negative”, the mutagenic call (Test System: AMES SALMONELLA TYPHIMURIUM, Strain/Indicator: TA98, Metabolic Activation: RAT, LIVER, S-9, KC 500, Method: PREINCUBATION) is reported as “inactive; negative” and the mutagenic call [2] is reported as “inactive; negative”. For the same compound, the mutagenic call (Test System: AMES SALMONELLA TYPHIMURIUM, Strain/Indicator: TA100, Metabolic Activation: RAT, LIVER, S-9, KC 500, Method: PREINCUBATION) was “inactive; negative”, the mutagenic call [3] was “inactive; negative” and the mutagenic call (Test System: AMES SALMONELLA TYPHIMURIUM, Strain/Indicator: TA1535, Metabolic Activation: RAT, LIVER, S-9, KC 500, Method: PREINCUBATION) was “inactive; negative”. For the same compound, the mutagenic call [4] was “inactive; negative”, the mutagenic call (Test System: AMES SALMONELLA TYPHIMURIUM, Strain/Indicator: TA1537, Metabolic Activation: RAT, LIVER, S-9, KC 500, Method: PREINCUBATION) was “inactive; negative” and the mutagenic call [5] was “inactive; negative”. The mutagenic call (Test System: AMES SALMONELLA TYPHIMURIUM, Strain/Indicator: TA1538, Metabolic Activation: RAT, LIVER, S-9, KC 500, Method: PREINCUBATION) was “inactive; negative”, the mutagenic call (Test System: E. COLI, Strain/Indicator: WP2 UVRA, Metabolic Activation: NONE, Method: PREINCUBATION) was “inactive; negative” and the mutagenic call (Test System: E. COLI, Strain/Indicator: WP2 UVRA, Metabolic Activation: RAT, LIVER, S-9, KC 500, Method: PREINCUBATION) was “inactive; negative”.

With `C=C(C)C(=O)O` the mutagenic call (Test System: AMES SALMONELLA TYPHIMURIUM, Strain/Indicator: TA98, Metabolic Activation: HAMSTER, LIVER, S-9, AROCLOR 1254, Method: PREINCUBATION) was “inactive; negative”, the mutagenic call [1] was “inactive; negative” and the mutagenic call (Test System: AMES SALMONELLA TYPHIMURIUM, Strain/Indicator: TA98, Metabolic Activation: RAT, LIVER, S-9, AROCLOR 1254, Method: PREINCUBATION) was “inactive; negative”. The mutagenic call (Test System: AMES SALMONELLA TYPHIMURIUM, Strain/Indicator: TA100, Metabolic Activation: HAMSTER, LIVER, S-9, AROCLOR 1254, Method: PREINCUBATION) was “inactive; negative”, the mutagenic call [2] was “inactive; negative” and the mutagenic call (Test System: AMES SALMONELLA TYPHIMURIUM, Strain/Indicator: TA100, Metabolic Activation: RAT, LIVER, S-9, AROCLOR 1254, Method: PREINCUBATION) was “inactive; negative”. The mutagenic call (Test System: AMES SALMONELLA TYPHIMURIUM, Strain/Indicator: TA1535, Metabolic Activation: HAMSTER, LIVER, S-9, AROCLOR 1254, Method: PREINCUBATION) was “inactive; negative”, the mutagenic call [3] was “inactive; negative” and the mutagenic call (Test System: AMES SALMONELLA TYPHIMURIUM, Strain/Indicator: TA1535, Metabolic Activation: RAT, LIVER, S-9, AROCLOR 1254, Method: PREINCUBATION) was “inactive; negative”. The mutagenic call (Test System: AMES SALMONELLA TYPHIMURIUM, Strain/Indicator: TA1537, Metabolic Activation: HAMSTER, LIVER, S-9, AROCLOR 1254, Method: PREINCUBATION) was “inactive; negative”, the mutagenic call [4] was “inactive; negative” and the mutagenic call (Test System: AMES SALMONELLA TYPHIMURIUM, Strain/Indicator: TA1537, Metabolic Activation: RAT, LIVER, S-9, AROCLOR 1254, Method: PREINCUBATION) was “inactive; negative”.

In the case of `NC(CO)Cc1cnc[nH]1` (stereo not given), the mutagenic call (Test System: MOUSE LYMPHOMA, Strain/Indicator: L5178Y (TK+/TK-), Metabolic Activation: NONE, Method: SUSPENSION/PLATE) is reported as “inactive; negative. reevaluation of results: negative” and the mutagenic call (Test System: MOUSE LYMPHOMA, Strain/Indicator: L5178Y (TK+/TK-), Metabolic Activation: RAT, LIVER, S-9, AROCLOR 1254, Method: SUSPENSION/PLATE) is reported as “inactive; negative. reevaluation of results: negative”.

For `Nc1c2ccccc2nc2ccc(Cl)cc12`, the mutagenic call [4] was “active; positive”.

Reference: PubChem BioAssay AID1259407 (Chemical Carcinogenesis Research Information System (CCRIS), 2018)
